These compounds were tested on human immortalized podocytes inducibly expressing APOL1 G2 (assay: APOL1 G2 podocyte cell rescue assay (Example B4)). Conditions: Homo sapiens, differentiated human podocytes, doxycycline-induced APOL1 G2, CellTiter-Glo; geometric mean of at least 2 runs; † = single run.
Assay type: cell-based
Summary of the method: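 Differentiated hTERT-immortalized podocytes (clone D10) with doxycycline-inducible C-terminally HiBiT-tagged APOL1 G2, 6,000 cells/well, treated with doxycycline plus 8-point 3-fold compound series (0.4% DMSO) for 95 h at 37 °C. Viability by CellTiter-Glo luminescence; EC50 as geometric mean of ≥2 runs, each in duplicate.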
With CC(CO)(c1ncc(OCCN2CCC3(CC2)C(=O)Nc2ccc(Cl)cc23)cc1C(F)(F)F)S(C)(=O)=O (centres unmarked) [Compound 401, 5-chloro-1′-(2-{[6-(1-hydroxy-2-methanesulfonylpropan-2-yl)-5-(trifluoromethyl)pyridin-3-yl]oxy}ethyl)-1,2-dihydrospiro[indole-3,4′-piperidin]-2-one] the EC50 was 4.62 nM.
Compound CC(C)(O)c1ncc(OCCN2CCC3(CC2)C(=O)Nc2ccc(C#N)cc23)cc1C(F)(F)F [Compound 411, 1′-(2-{[6-(2-hydroxypropan-2-yl)-5-(trifluoromethyl)pyridin-3-yl]oxy}ethyl)-2-oxo-1,2-dihydrospiro[indole-3,4′-piperidine]-5-carbonitrile] has an EC50 of 1.45 nM.
Work on [2H]C([2H])(Oc1cnc2c(c1)CCC(=O)N2[C@H]1C[C@@](C)(O)C1)C([2H])([2H])N1CCC2(CC1)C(=O)Nc1ccc(Cl)cc12 [Compound 426, 5-chloro-1′-[2-({7-oxo-8-[(cis)-3-hydroxy-3-methylcyclobutyl]-5,6,7,8-tetrahydro-1,8-naphthyridin-3-yl}oxy)(1,1,2,2-^2H4)ethyl]-1,2-dihydrospiro[indole-3,4′-piperidin]-2-one] yielded an EC50 of 4.1 nM.
In the case of C[C@]1(O)C[C@@H](n2cc3cc(OCCN4CCC5(CC4)C(=O)Nc4ccc(Cl)cc45)cc(C(F)(F)F)c3n2)C1 [Compound 427, 5-chloro-1′-[2-({2-[(cis)-3-hydroxy-3-methylcyclobutyl]-7-(trifluoromethyl)-2H-indazol-5-yl}oxy)ethyl]-1,2-dihydrospiro[indole-3,4′-piperidin]-2-one], the EC50 is reported as 1.95 nM.
C[C@]1(O)C[C@@H](n2cc3cc(OCCN4CCC5(CC4)C(=O)Nc4ccc(C#N)cc45)cc(C(F)(F)F)c3n2)C1 [Compound 428, 2-oxo-1′-[2-({2-[(cis)-3-hydroxy-3-methylcyclobutyl]-7-(trifluoromethyl)-2H-indazol-5-yl}oxy)ethyl]-1,2-dihydrospiro[indole-3,4′-piperidine]-5-carbonitrile] was tested, and the EC50 was 12.2 nM.
C[C@]1(O)C[C@@H](n2cnc3cc(OCCN4CCC5(CC4)C(=O)Nc4ccc(C#N)cc45)cc(C(F)(F)F)c32)C1 [Compound 433, 1′-(2-((1-((cis)-3-hydroxy-3-methylcyclobutyl)-7-(trifluoromethyl)-1H-benzo[d]imidazol-5-yl)oxy)ethyl)-2-oxospiro[indoline-3,4′-piperidine]-5-carbonitrile] gave an EC50 of 2.13 nM.
Compound C[C@]1(O)C[C@@H](n2nnc3cc(OCCN4CCC5(CC4)C(=O)Nc4ccc(Cl)cc45)cc(C(F)(F)F)c32)C1 [Compound 434, 5-chloro-1′-[2-({1-[(cis)-3-hydroxy-3-methylcyclobutyl]-7-(trifluoromethyl)-1H-1,2,3-benzotriazol-5-yl}oxy)ethyl]-1,2-dihydrospiro[indole-3,4′-piperidin]-2-one] has an EC50 of 1.5 nM.
Compound C[C@]1(O)C[C@@H](n2nnc3cc(OCCN4CCC5(CC4)C(=O)Nc4ccc(C#N)cc45)cc(C(F)(F)F)c32)C1 [Compound 435, 2-oxo-1′-[2-({1-[(cis)-3-hydroxy-3-methylcyclobutyl]-7-(trifluoromethyl)-1H-1,2,3-benzotriazol-5-yl}oxy)ethyl]-1,2-dihydrospiro[indole-3,4′-piperidine]-5-carbonitrile] has an EC50 of 2.94 nM.
C[C@]1(O)C[C@@H](n2cnc3cc(OCCN4CCC5(CC4)C(=O)Nc4ccc(Cl)cc45)cc(C#N)c32)C1 [Compound 439, 5-(2-{5-chloro-2-oxo-1,2-dihydrospiro[indole-3,4′-piperidin]-1′-yl}ethoxy)-1-[(cis)-3-hydroxy-3-methylcyclobutyl]-1H-1,3-benzodiazole-7-carbonitrile] showed an EC50 of 3.92 nM.
C[C@]1(O)C[C@@H](n2nnc3cc(OCCN4CCC5(CC4)C(=O)Nc4ccc(Cl)cc45)cnc32)C1 [Compound 440, 5-chloro-1′-[2-({3-[(cis)-3-hydroxy-3-methylcyclobutyl]-3H-[1,2,3]triazolo[4,5-b]pyridin-6-yl}oxy)ethyl]-1,2-dihydrospiro[indole-3,4′-piperidin]-2-one] was tested, and the EC50 was 15 nM.
In the case of Cc1nc2cc(OCCN3CCC4(CC3)C(=O)Nc3ccc(Cl)cc34)cc(C(F)(F)F)c2n1[C@H]1C[C@@](C)(O)C1 [Compound 442, 5-chloro-1′-[2-({2-methyl-1-[(cis)-3-hydroxy-3-methylcyclobutyl]-7-(trifluoromethyl)-1H-1,3-benzodiazol-5-yl}oxy)ethyl]-1,2-dihydrospiro[indole-3,4′-piperidin]-2-one], the EC50 is reported as 1.16 nM.
Work on Cc1nc2cc(OCCN3CCC4(CC3)C(=O)Nc3ccc(C#N)cc34)cc(C(F)(F)F)c2n1[C@H]1C[C@@](C)(O)C1 [Compound 443, 1′-[2-({2-methyl-1-[(cis)-3-hydroxy-3-methylcyclobutyl]-7-(trifluoromethyl)-1H-1,3-benzodiazol-5-yl}oxy)ethyl]-2-oxo-1,2-dihydrospiro[indole-3,4′-piperidine]-5-carbonitrile] yielded an EC50 of 2.5 nM.
Work on C[C@]1(O)C[C@@H](n2cnc3cc(OCCN4CCC5(CC4)C(=O)Nc4ccc(C(F)F)cc45)cc(C(F)(F)F)c32)C1 [Compound 450, 5-(difluoromethyl)-1′-[2-({1-[(cis)-3-hydroxy-3-methylcyclobutyl]-7-(trifluoromethyl)-1H-1,3-benzodiazol-5-yl}oxy)ethyl]-1,2-dihydrospiro[indole-3,4′-piperidin]-2-one] yielded an EC50 of 0.846 nM.
C[C@]1(O)C[C@@H](n2cnc3cc(OCCN4CCC5(CC4)C(=O)Nc4c(I)cc(Cl)cc45)cc(C(F)(F)F)c32)C1 [Compound 453, 5-chloro-7-iodo-1′-[2-({1-[(cis)-3-hydroxy-3-methylcyclobutyl]-7-(trifluoromethyl)-1H-1,3-benzodiazol-5-yl}oxy)ethyl]-1,2-dihydrospiro[indole-3,4′-piperidin]-2-one] showed an EC50 of 1.81 nM.
For C[C@]1(O)C[C@@H](n2cnc3cc(OCCN4CCC5(CC4)C(=O)Nc4ccc(Cl)cc45)cc(F)c32)C1 [Compound 454, 5-chloro-1′-(2-((7-fluoro-1-((cis)-3-hydroxy-3-methylcyclobutyl)-1H-benzo[d]imidazol-5-yl)oxy)ethyl)spiro[indoline-3,4′-piperidin]-2-one], the EC50 was 4.34 nM.
For C[C@]1(O)C[C@@H](n2ncc3cc(OCCN4CCC5(CC4)C(=O)Nc4ccc(Cl)cc45)cc(C(F)(F)F)c32)C1 [Compound 464, 5-chloro-1′-[2-({1-[(cis)-3-hydroxy-3-methylcyclobutyl]-7-(trifluoromethyl)-1H-indazol-5-yl}oxy)ethyl]-1,2-dihydrospiro[indole-3,4′-piperidin]-2-one], the EC50 was 0.659 nM.
C[C@]1(O)C[C@@H](n2ncc3cc(OCCN4CCC5(CC4)C(=O)Nc4ccc(C#N)cc45)cc(C(F)(F)F)c32)C1 [Compound 465, 2-oxo-1′-[2-({1-[(cis)-3-hydroxy-3-methylcyclobutyl]-7-(trifluoromethyl)-1H-indazol-5-yl}oxy)ethyl]-1,2-dihydrospiro[indole-3,4′-piperidine]-5-carbonitrile] showed an EC50 of 1.22 nM.
